# Reference: patent US8093211B2, “Methods and pharmaceutical compositions for healing wounds” (Bar-Ilan University, priority 2001, dated 2012)
# No end group written: not given here. *: point of attachment. Myristoyl = CCCCCCCCCCCCCC(=O)*
# Columns and labels:
# [1] = system: over-expressed PKC isoforms; assay: Translocation of over-expressed PKC isoforms by PKC activator in infected keratinocytes; type: cell-based, mouse; conditions: stimulated for 30 minutes, 24 hours following infection
# Experimental: Four day old primary keratinocytes were infected for 1 hour with isoform specific recombinant PKC adenoviruses. Twenty four hours following infection, cells were either untreated (C) or stimulated with bryostatin 1 (B) for 30 minutes, and fractionated. Protein samples were subjected to Western blotting and analyzed using isoform specific anti-PKC antibodies.
# Preparation of cell extracts and Western blot analysis: For crude membrane fractions, whole cell lysates were prepared by scraping cells into PBS containing 10 μg/ml aprotinin, 10 μg/ml leupeptin, 2 μg/ml pepstatin, 1 mM PMSF, 10 mM EDTA, 200 μM NaVO4 and 10 mM NaF. After homogenization and 4 freeze/thaw cycles, lysates were spun down at 4° C. for 20 minutes in a microcentrifuge at maximal speed. The supernatant containing the soluble cytosol protein fraction was transferred to another tube. The pellet was resuspended in 250 μl PBS containing 1% Triton X-100 with protease and phosphatase inhibitors, incubated for 30 minutes at 4° C. and spun down in a microcentrifuge at maximal speed at 4° C. The supernatant contains the membrane fraction. Protein concentrations were measured using a modified Lowery assay (Bio-Rad DC Protein Assay Kit). Western blot analysis of cellular protein fractions was carried out as described (6). […]
# PKCδ [2] = assay: Translocation of PKCδ from cytosol to membrane in proliferating keratinocytes (Western blot); type: cell-based, murine; conditions: 10^−7 M insulin or 10^−8 M IGF1; as early as 5 minutes following stimulation
# Experimental: Primary keratinocytes were isolated and plated as described in the Examples section that follows. Proliferating keratinocytes were maintained for five days in low Ca^2+ medium (0.05 mM) until they reached 80% confluency. Cells were stimulated with 10^−7 M insulin (Ins) or 10^−8 M IGF1 (IGF) for 15 minutes. Cells were lysed, as described, and 20 μg of membrane or cytosol extracts of stimulated and control unstimulated (Cont) cells were subjected to SDS-PAGE and transfer. Blots were probed with specific polyclonal antibodies to each PKC isoform.
# Isolation and culture of murine keratinocytes: Primary keratinocytes were isolated from newborn skin as previously described (18). […]
# Preparation of cell extracts and Western blot analysis: For crude membrane fractions, whole cell lysates were prepared by scraping cells into PBS containing 10 μg/ml aprotinin, 10 μg/ml leupeptin, 2 μg/ml pepstatin, 1 mM PMSF, 10 mM EDTA, 200 μM NaVO4 and 10 mM NaF. […] Protein concentrations were measured using a modified Lowery assay (Bio-Rad DC Protein Assay Kit). […]
# In order to try and identify the endogenous factors, which activate specific PKC isoforms regulating skin proliferation, the ability of several growth factors which are known to promote keratinocyte proliferation including: EGF, KGF, insulin, PDGF and IGF1 to activate specific PKC isoforms in a growth dependent manner was assessed. […]
# primary keratinocytes = assay: Keratinocyte proliferation by [3H]thymidine incorporation; type: cell-based, murine; conditions: for concentration of maximal induction of thymidine incorporation: stimulated for 24 hours, proliferating keratinocytes in low Ca2+
# Experimental: Proliferating keratinocytes were maintained for five days in low Ca^2+ medium (0.05 mM) until they reached 80% confluence. (A) Five-day keratinocyte cultures were stimulated for 24 hours with insulin or IGF1 at the designated concentrations. (B) In parallel, keratinocytes were stimulated with 10^−7 M insulin (Ins) and increasing doses of IGF1 (IGF). At each concentration the right column (striped bar) represents proliferation observed when both hormones were added together. […] Thymidine incorporation was measured as described in experimental procedures. The results shown are representative of 6 experiments. Each bar represents the mean±SE of 3 determinations expressed as percent above control unstimulated keratinocytes.
# Non-infected (light blue bars), or cells over-expressing WTPKCδ (dark blue bars) or DNPKCδ (slashed blue bars) were treated for 24 hours with 10^−7 M insulin (Ins), 10^−8 M IGF1 (IGF) or both (Ins+IGF). Thymidine incorporation was measured as described in experimental procedures. Each bar represents the mean±SE of 3 determinations in 3 experiments done on separate cultures. Values are expressed as percent of control, unstimulated cells from the same culture in each experiment.
# Isolation and culture of murine keratinocytes: Primary keratinocytes were isolated from newborn skin as previously described (18). Keratinocytes were cultured in Eagle's Minimal Essential Medium (EMEM) containing 8% Chelex (Chelex-100, BioRad) treated fetal bovine serum. To maintain a proliferative basal cell phenotype, the final Ca^2+ concentration was adjusted to 0.05 mM. Experiments were performed five to seven days after plating.
# Cell proliferaion: Cell proliferation was measured by [^3H]thymidine incorporation in 24 well plates. Cells were pulsed with [^3H]thymidine (1 μCi/ml) overnight. After incubation, cells were washed five times with PBS and 5% TCA was added into each well for 30 minutes. The solution was removed and cells were solubilized in 1% Triton X-100. The labeled thymidine incorporated into cells was counted in a ^3H-window of a Tricarb liquid scintillation counter.
# PKCδ [3] = assay: PKCδ kinase activity of immunoprecipitates from stimulated keratinocytes; type: cell-based, murine; conditions: 10^−7 M insulin or 10^−8 M IGF1 for 1, 15 or 30 minutes
# Experimental: To determine PKCδ activity, five-day keratinocyte cultures were stimulated with 10^−7 M insulin (Ins) or 10^−8 M IGF1 (IGF) for the designated times (1, 15, or 30 minutes). PKCδ was immunoprecipitated from membrane (blue bars, mem) and cytosol (purple bars, cyto) fractions using specific anti-PKCδ antibody. PKCδ immunoprecipitates were analyzed for PKC activity utilizing an in vitro kinase assay as described in experimental procedures. Each bar represents the mean±SE of 3 determinations in 3 separate experiments. Values are expressed as pmol ATP/dish/min.
# (§1) PKC activity: Specific PKC activity was determined in freshly prepared immunoprecipitates from keratinocyte cultures following appropriate treatments. These lysates were prepared in RIPA buffer without NaF. Activity was measured with the use of the SignaTECT Protein Kinase C Assay System (Promega, Madison, Wis., USA) according to the manufacturer's instructions. PKCα pseudosubstrate was used as the substrate in these studies.
# (§2) In order to determine whether the translocation of PKCδ is sufficient for activation, kinase activity of PKC immunoprecipitates from the cytoplasm and membrane fractions of insulin and IGF1 treated keratinocytes was measured.
# STAT3 = assay: Insulin induced STAT3 activation and nuclear translocation in keratinocytes (immunofluorescence); type: cell-based, murine; conditions: 5 μM Rottlerin for 7 minutes, followed by 10^−7 M insulin for 5 minutes
# Experimental: Primary keratinocytes were plated on glass slides and maintained for 5 days in low Ca^++ medium (0.05 mmol/l) until they reached 80% confluency. Cells were untreated (Cont, upper panel) or pre-treated with 5 μM Rottlerin for 7 minutes (R, lower panel), followed by 10^−7 M insulin for 5 minutes (Ins). Cells were fixed by methanol, washed and air-dried. Cultures were analyzed by immunofluorescence using antiphospho-Tyr-705-STAT3 antibody, followed by FITC conjugated secondary antibody. Cells were scanned by confocal microscopy.
# Immunofluorescence: Primary keratinocytes were plated on laminin 5 coated glass slides. Two days old keratinocytes were infected with PKC adenovirus for one hour, washed twice with PBS and maintained in culture in low Ca^2+ EMEM. Twenty four hours post infection, cells were fixed in 4% paraformaldehyde for 30 minutes followed by permeabilization with 0.2% Triton for 5 minutes. For analysis, control and PKC infected keratinocytes were rinsed with PBS and incubated overnight at 4° C. with PKC antibodies (Santa Cruz) diluted in 1% BSA in PBS. […] Following two washes in PBS, slides were mounted with glycerol buffer containing 1% of p-phenylenediamine (Sigma) and fluorescence examined by laser scanning confocal imaging microscopy (MRC 1024, Bio-Rad, UK).
# [4] = system: incision wounds on the back of C57BL mice; assay: Single vs. multiple applications of insulin for wound healing in vivo (Example 20)
# Experimental: Wounds were effected on the back of 8-10 week old C57BL mice by incision and were treated with different concentrations and frequencies of insulin applications (i.e., seven daily repeat applications vs. a single application). The treated mice were sacrificed seven days after wounding and the areas of treated wounds were measured. The results are presented as mm^2 wound area and each bar represents the mean of six replications±standard deviation (p<0.005).
# Wounds were effected on the back of 8-10 week old C57BL mice by incision and were treated with different concentrations of insulin and frequencies of applications (i.e., seven daily repeat applications vs. a single application). Histological wound sections were performed seven days after wounding and were analyzed for epidermal and dermal closure (wound contraction). Epidermal closure was assessed by Keratin 14 (K14) antibody staining (left panel) and was considered positive if the wound was stained positive across the entire gap. The dermal closure was considered positive if both dermal wound sides could be observed under a light microscope in a single field at ×10 magnification (right panel). The results are presented as percent of wound closure over control and each bar represents the mean of six replications.
# Wounds were effected on the back of 8-10 week old C57BL mice by incision and were treated as follows: (i) insulin 0.1 μM applied daily for 7 days; (ii) insulin 1 μM applied daily for 7 days; (iii) insulin 10 μM applied daily for 7 days; (iv) insulin 1 μM applied once 4 days after wounding; and (v) vehicle (PBS) control applied daily for 7 days. All mice were sacrificed seven days after wounding and their open wound areas were measured.
# Since the observed wounds were covered with a scar tissue it was difficult to correctly assess the actual closure of the wound and the formation of reconstructed epidermis. Therefore the effects of insulin on epidermal and dermal closure of wounds tissue were determined by histological parameters. Epidemial closure of wounds was determined by staining wound sections with Keratin 14 antibody (K14, Babco-Convance, Richmond, Calif., USA) which highlighted the formation of basal cells at the wound gap. Dermal closure of wounds was considered positive if both wound sides the dermis could be observed in a single field observed under a light microscope at ×10 magnification.
# [5] = system: incision wounds on the back of C57BL mice; assay: Effect of PKCα inhibitor and insulin on wound inflammation in vivo (Example 23); conditions: for Incidence of severe inflammation I wound (%): treated daily for 7 days, 1 μM of each agent, observed seven days after wounding
# Experimental: Late and severe inflammatory response in wounds may suppress the process of healing, thus preventing such inflammation from development may promote the wound healing process. Accordingly, the effect of PKCα inhibitor and insulin on wound inflammation was tested in the following experiment. Wounds were effected on the back of C57BL mice by incision and were treated daily for 7 days with: (i) PBS, control; (ii) 1 μM of a PKCα inhibitor (pseudosubstrate myristolated; Calibiochem, USA); (iii) 1 μM insulin (Eli Lilly, USA); or a mixture of 1 μM PKCα inhibitor and 1 μM insulin.
# PKCs α, ε, η, or ζ = assay: Kinase activity of other PKC isoforms after insulin stimulation of keratinocytes; type: cell-based, murine; conditions: up to 30 minutes following insulin stimulation
# Experimental: as §1, §2
compound,measurement,setting,value
CCC/C=C/C=C/C(=O)O[C@H]1/C(=C/C(=O)OC)C[C@H]2C[C@H]([C@@H](C)O)OC(=O)C[C@H](O)C[C@@H]3C[C@H](OC(C)=O)C(C)(C)[C@](O)(C[C@@H]4C/C(=C/C(=O)OC)C[C@H](/C=C/C(C)(C)[C@]1(O)O2)O4)O3 [bryostatin 1],translocation of PKCα and δ proteins to the membrane fraction,[1],induced translocation
same,translocation of PKCη and ζ isoforms to the membrane fraction,[1],lesser effect
"IGF1: growth factor IGF1, a gift from Cytolab (Israel)",translocation of PKCδ between cytoplasm and membrane fractions,PKCδ [2],reduced PKCδ expression in the membrane
same,"maximal stimulation of thymidine incorporation, compared at each concentration",primary keratinocytes; 24 hours,greater than that by insulin
same,concentration of maximal induction of thymidine incorporation,primary keratinocytes,10^−8 M
same,activity of PKCδ in the membrane fraction,PKCδ [3],insulin but not IGF1 increased activity of PKCδ
CC(=O)c1c(O)c(C)c(O)c(Cc2c(O)c3c(c(C(=O)/C=C/c4ccccc4)c2O)OC(C)(C)C=C3)c1O [rottlerin],activation and nuclear translocation of STAT3 after insulin,STAT3,inhibits activation as well as nuclear translocation of STAT3
"insulin: humulinR-recombinant human insulin, purchased from Eli Lilly",open wound area,"[4]; 1 μM applied once 4 days after wounding, compared with seven repeat daily applications at 1 μM",substantially more effective
same,open wound area,"[4]; 1 μM daily for 7 days, compared with daily 0.1 μM or 10 μM",significantly more effective
same,epidermal and dermal closure (histology),"[4]; 1 μM daily, compared with daily 0.1 μM or 10 μM",significantly more effective
same,epidermal and dermal closure (histology),"[4]; all insulin treatments (0.1, 1, 10 μM daily; 1 μM single)",effectively promoted epidermal and dermal closure
same,epidermal and dermal closure (histology),"[4]; single application 1 μM, compared with seven repeat daily applications at 1 μM",substantially more effective
same,translocation of PKCδ between cytoplasm and membrane fractions,PKCδ [2],specifically induced translocation of PKCδ from the cytoplasm to the membranal fractions
same,effect on severe wound inflammation,[5]; 1 μM daily for 7 days,not effective
same,Incidence of severe inflammation I wound (%),[5],56.0%
same,concentration of maximal induction of thymidine incorporation,primary keratinocytes,10^−7 M
same,increase of thymidine incorporation over untreated cells,"primary keratinocytes; untransfected cells, 10^−7 M insulin for 24 hours",two to three fold
same,"activation of PKCs α, ε, η, or ζ","PKCs α, ε, η, or ζ",no activation
same,activity of PKCδ in the membrane fraction,PKCδ [3],increased activity of PKCδ
"PKCα inhibitor: PKCα inhibitor of SEQ ID NO:1, PKCα pseudosubstrate myristoylated; Calbiochem (Myristoyl-FARKGALRQ)","decrease of severe wound inflammation incidence, as compared to control",[5]; 1 μM daily for 7 days,33.3%
same,Incidence of severe inflammation I wound (%),[5],40.0%
